Laboratory results as given in patent publication US20250108038A1 (priority 2023, published 2025).

What was measured:
[1] = Stability in components of human blood; assay type: in vitro ADME; details: 0.5 mM, 37° C., 0-120 min
Protocol: FIG. 3A. […] Compound I-19 in components of human blood. Red blood cells and plasma were isolated from whole blood. […] Values represent mean+SEM of n=3 separate experiments.
FIG. 3B. Stability of Compound I-4 in components of human blood. Red blood cells and plasma were isolated from whole blood. […] Values represent mean+SEM of n=3 separate experiments.
Human and rat blood were centrifuged to separate out red blood cells at 1174×g for 15 min. The upper plasma level was aspirated with a micropipette and placed in a bleach solution for disposal. The RBC pellet was resuspended in sterile isotonic saline. The pellet was gently resuspended by rocking the tube. The sample was then centrifuged again to collect the RBC pellet and then resuspended and washed one more time following the same procedure. A total of three was done. Following the last wash and centrifugation, the RBCs were resuspended with PBS; and mixed by inversion. Aliquots of the resuspended and washed RBCs were then placed into 4 reaction tubes. These tubes were centrifuged to collect the RBCs. The fluid level was marked on each tube, then the supernatant was aspirated off and the cells resuspended with room temperature PBS pH 7.4 to the original mark. An aliquot of the RBC suspension was added to four sterile tubes containing PBS pH 7.4 at room temperature. […]

C57BL/6 mice = assay: SmartCage locomotor activity monitoring; assay type: in vivo, mouse; details: 0.3, 1.0, 3.0 and 10 mg/kg, IP, 24 h
[2] = Plasma protein binding by equilibrium dialysis; assay type: in vitro ADME, mouse; details: for % Recovery / % Unbound: mouse plasma
Protocol: Samples of spiked plasma and blank buffer (Dulbecco's phosphate-buffered saline, DPBS) and spiked brain homogenate and blank DPBS added to opposing sides of a dialysis membrane were collected from triplicate equilibrium dialysis chambers prior to (t=0) and following 1, 2, 4 and 6 hours of incubation at 37° C. […] The LC-MS/MS method(s) for analytes (Compound I-19, Compound A and Compound B) was cross-qualified for the analysis of the DPBS samples.
A secondary stock solution of 200 μM (74.2 ug/mL) will be prepared in DMSO. This secondary stock solution will then be diluted 100-fold to 2 μM ([…]) with male CD-1 mouse plasma and brain homogenate (1:2 v/v brain:Dulbecco's phosphate buffered saline, pH 7-7.2) or buffer (DPBS).
To 2.97 mL aliquots of thawed mouse plasma or brain homogenate warmed to 37° C., 30 ul aliquots of the secondary stock solution of the test compound will be added for final concentrations of 2 μM (0.742 ug/mL). An appropriate volume of warmed buffer (DPBS) will also be spiked with the test compound at a concentration of 2 μM ([…]). Triplicate aliquots (50 μL) of each spiked plasma, brain homogenate and buffer solution will be collected prior to dialysis into labeled 1.5 mL polypropylene tubes and then stored at approximately −80° C. until bioanalysis.
Equilibrium dialysis will be performed in a 96-well Teflon dialysis unit (HTDialysis, Gales Ferry, CT). Each well of the unit consists of two chambers separated by a vertically aligned dialysis membrane (regenerated cellulose) with a molecular weight cut-off of 12-14 KDa. The equilibrium dialysis membranes will first be presoaked in deionized water for 30 min, then soaked in 20% ethanol for 20 min, followed by rinsing twice with deionized water.
The equilibrium dialysis apparatus will be assembled according to the manufacturer's directions. One chamber of each well will be immediately filled with 150 μL of blank buffer (to prevent membrane dehydration). Aliquots (150 μL) of spiked plasma, spiked brain homogenate and spiked buffer will then be added to the opposing chamber in each well. Three wells per time point per matrix will be used. The top of the plate will be sealed with an adhesive sealing film to prevent evaporation and maintain constant pH during incubation.
The dialysis apparatus will be incubated at 37° C. in an orbital shaker/incubator (Lab-Line Enviro Shaker) set at 75 rpm.
Following 1, 2, 4 and 6 hours of incubation, samples from each plasma, brain homogenate and buffer compartment will be collected and the sample volume will be documented.

CYP1A2 = biological target: T1, CYP1A2 (Homo sapiens, UniProt P05177); assay: in vitro; details: both, microsomes, pH 7.4
T1 sequence (P05177 1-516): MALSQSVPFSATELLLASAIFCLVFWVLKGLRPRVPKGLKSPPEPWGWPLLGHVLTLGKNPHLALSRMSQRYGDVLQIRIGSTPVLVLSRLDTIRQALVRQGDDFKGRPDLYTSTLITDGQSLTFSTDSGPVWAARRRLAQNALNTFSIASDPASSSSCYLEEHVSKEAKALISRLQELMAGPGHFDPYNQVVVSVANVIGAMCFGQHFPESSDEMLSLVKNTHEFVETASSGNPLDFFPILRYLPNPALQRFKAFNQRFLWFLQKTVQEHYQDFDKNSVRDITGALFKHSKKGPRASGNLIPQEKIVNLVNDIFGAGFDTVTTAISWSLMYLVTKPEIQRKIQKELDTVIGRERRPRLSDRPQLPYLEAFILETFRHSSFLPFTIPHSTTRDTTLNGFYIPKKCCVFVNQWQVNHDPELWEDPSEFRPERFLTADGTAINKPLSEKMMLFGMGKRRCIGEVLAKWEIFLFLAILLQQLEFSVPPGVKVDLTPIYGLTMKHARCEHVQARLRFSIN

CYP2D6 = CYP2D6 (Homo sapiens, UniProt P10635); assay: in vitro; details: both, pH 7.4
Sequence of CYP2D6 (P10635 whole entry): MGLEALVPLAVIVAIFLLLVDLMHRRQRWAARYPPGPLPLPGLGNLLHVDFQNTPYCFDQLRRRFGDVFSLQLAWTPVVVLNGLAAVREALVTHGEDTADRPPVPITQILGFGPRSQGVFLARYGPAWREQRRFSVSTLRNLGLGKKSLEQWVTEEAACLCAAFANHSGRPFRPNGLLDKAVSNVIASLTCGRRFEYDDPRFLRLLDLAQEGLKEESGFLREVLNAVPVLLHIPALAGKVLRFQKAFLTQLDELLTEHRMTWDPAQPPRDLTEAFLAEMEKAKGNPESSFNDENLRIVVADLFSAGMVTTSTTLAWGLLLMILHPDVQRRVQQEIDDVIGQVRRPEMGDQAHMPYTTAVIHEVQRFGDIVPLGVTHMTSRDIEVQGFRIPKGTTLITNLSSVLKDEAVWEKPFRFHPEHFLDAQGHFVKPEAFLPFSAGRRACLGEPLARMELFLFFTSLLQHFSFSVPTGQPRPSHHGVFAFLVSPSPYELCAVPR

CYP3A4 = CYP3A4 (Homo sapiens, UniProt P08684); assay: in vitro; details: both, pH 7.4, Inhibition at Highest Test Article Concentration
Sequence of CYP3A4 (P08684 whole entry): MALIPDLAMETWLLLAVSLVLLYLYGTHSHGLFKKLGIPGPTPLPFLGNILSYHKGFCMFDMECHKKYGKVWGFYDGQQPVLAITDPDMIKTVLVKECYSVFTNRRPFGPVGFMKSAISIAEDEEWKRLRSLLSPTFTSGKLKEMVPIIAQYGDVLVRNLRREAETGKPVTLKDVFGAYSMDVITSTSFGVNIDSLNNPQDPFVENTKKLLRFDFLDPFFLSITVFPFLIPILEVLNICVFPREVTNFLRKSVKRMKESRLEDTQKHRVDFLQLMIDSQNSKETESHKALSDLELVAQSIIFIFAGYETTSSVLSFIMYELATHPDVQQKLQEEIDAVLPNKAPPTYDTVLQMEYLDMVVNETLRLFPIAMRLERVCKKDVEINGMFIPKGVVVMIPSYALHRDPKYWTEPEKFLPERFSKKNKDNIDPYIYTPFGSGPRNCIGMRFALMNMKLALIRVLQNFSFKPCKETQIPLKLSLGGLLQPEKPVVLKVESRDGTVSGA

[3] = dialysis time 1 h, 2 μM, 37° C.
[4] = dialysis time 2 h, 2 μM, 37° C.
[5] = dialysis time 4 h, 2 μM, 37° C.
[6] = dialysis time 6 h, 2 μM, 37° C.

Clc1ccc(C2(OCC3OCCO3)c3ccccc3C3=NCCN32)cc1 (stereo not drawn) [Compound I-19]
% parent compound remaining ([1]; human red blood cells): time-dependent decrease in the amount of parent compound present | % parent compound remaining ([1]; human whole blood): time-dependent decrease in the amount of parent compound present | home cage activity (activity, rearing, velocity, distance) (C57BL/6 mice): no significant effect on the diurnal or nocturnal activity measures | % unbound in plasma ([2]; 2 μM, 6 hours of dialysis, 37° C.): 3.72±0.564% | fraction unbound to plasma ([2]; 2 μM, equilibrium dialysis): 0.0372 | % recovery, plasma ([2]; 6 hours of dialysis): 57.1±0.567% | % Recovery [2, 3]: 87.9 ± 3.05% | % Unbound [2, 3]: 1.43% | % Recovery [2, 4]: 80.1 ± 2.93% | % Unbound [2, 4]: 1.91 ± 0.158% | % Recovery [2, 5]: 67.6 ± 3.41% | % Unbound [2, 5]: 3.20 ± 0.700% | % Recovery [2, 6]: 57.1 ± 0.567% | % Unbound [2, 6]: 3.72 ± 0.564%

OC1(c2ccc(Cl)cc2)c2ccccc2C2=NCCN21 (stereo not drawn) [Compound A, 5-(4-chlorophenyl)-2,3-dihydroimidazo[1,2-b]isoindol-5-ol, reference compound]
inhibition at 50 µM (CYP1A2): 13.7% | inhibition at 10 µM (CYP2D6): 70.8% | inhibition at 10 µM (CYP3A4; 3A4, Midazolam): 11.7% | inhibition at 10 µM (CYP3A4; 3A4, Testosterone): 14%
